Reference: patent US20220030866A1, “CONJUGATES OF AUXIN ANALOGS” (The State of Israel, Ministry of Agriculture & Rural …, priority 2019, published 2022)

How the values were obtained:
Type in all cases: in vivo
mung bean cuttings = test: rooting of mung bean cuttings (number of adventitious roots per cutting); settings: for effect on AR formation in mung bean cuttings, in words: tested at 2, 10 or 50 μM
Method in brief: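 Readout was the number of adventitious roots per cutting in mung bean cuttings. Conjugates of 4-CPA, MCPA and 2-DP were tested alongside unconjugated IBA and 2-DP–glycine methyl ester.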

DR5:venus marker = test: auxin activity by DR5:venus fluorescence in Arabidopsis plants; settings: 10 μM
Method in brief: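 Arabidopsis seedlings expressing nuclear DR5:venus, grown four days on MS medium, then transferred to plates with 10 μM compound for 24 h. Nuclear fluorescence imaged by confocal microscopy and averaged per segmented nucleus as auxin-activity readout; MS medium served as negative control.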

Arabidopsis seedlings [1] = test: root elongation inhibition in Arabidopsis seedlings; settings: for effect on root elongation relative to control, in words: after 5 days
Arabidopsis seedlings [2] = test: adventitious root formation in intact etiolated Arabidopsis seedlings; settings: intact etiolated seedlings; 50 nM, FIG. 17 legend 10 μM for one hour
Procedure: Adventitious roots (ARs) were induced in intact plants, using previously described procedures [Gutierrez et al., Plant Cell 2009, 21:3119-3132; Abu-Abied et al., Plant J 2012, 71:787-799; Rasmussen et al., Plant Physiol 2012, 158:1976-1987]. Briefly, seeds were germinated on MS/0.8% agar plates supplemented with 3% sucrose. The plates were kept in the dark for 2 days at 4° C., then 5 days at 22° C. in the dark, 2 days in the light, 3 days in the dark and then additional 4 days in the light to complete 2 weeks when roots were counted using a stereoscope. Sensitivity to auxin and/or auxin analogs was determined by following root elongation on vertical plates. The 4-day-old seedlings were transferred to MS plates containing 0.05 or 0.5 μM IAA and the root length was measured after 5 days, including the number of LRs in each root and calculation of the LR density. Each treatment experiment included 10-15 plants and was repeated 3 times.
In a third assay utilizing an Arabidopsis model, induction of adventitious root AR formation in intact plants was examined in the presence of 50 nM of tested compounds, which included 5 days incubation in the dark, followed by a shift to the light, according to procedures described by Sorin et al. [Plant Cell 2005, 17:1343-1359].
Conjugates prepared as described herein were evaluated in an Arabidopsis rooting model, according to procedures such as described hereinabove. Seeds were germinated and kept in the dark for 4 days. The etiolated seedlings were then incubated for 1 hour in 10 μM of each compound and then transferred to vertical MS medium-containing plates.

[3] = test system: Eucalyptus x trabutii cuttings; test: rooting of Eucalyptus x trabutii cuttings; settings: for mean root number per cutting, E. x trabutii: K-IBA alone or with 100 μM compound; for callus formation in E. x trabutii / mean root number and mean root length, E. x trabutii, relative to IBA alone, in words / rooting rate of E. x trabutii compared with IBA alone, in words: K-IBA with 100 μM compound
Procedure: In order to investigate cloning of productive eucalyptus trees from cuttings, branches were excised from mature Eucalyptus x trabutii and Eucalyptus brachyphylla trees the field (in Kfar Pines, Israel)—selected based on their exceptional nectar production and honeybee attraction—placed in a humidified cooler box and brought to a climate-controlled greenhouse within 2 hours. Each cutting, 7 cm long, included three nodes with only two leaves remaining at its apical end. Two-thirds of each blade was excised to minimize evapotranspiration. The cutting bases were submerged for 1 minute in 6 grams/liter indole-3-butyric acid potassium salt (K-IBA), optionally supplemented with Compound 1s or 1t at a concentration of 100 μM. In addition, the leaves were sprayed with 100 μM of each compound in the presence of 0.05% Triton X-100 surfactant. Stock solutions of Compounds 1s and 1t were at a concentration of 100 mM in DMSO. The cuttings were planted in rooting medium containing peat, vermiculite and polystyrene flakes at a ratio of 1:2:3 respectively, on a heated rooting table under 90% humidity. Fungicides were applied to the rooting media on a weekly basis. Rooting percentage, number of roots per cutting and root length were measured after 1 and 2 weeks and after 1 and 2 months.

[4] = test system: cuttings from mature Eucalyptus grandis trees; test: rooting of cuttings from mature Eucalyptus grandis trees; settings: 100 μM compound by submerging or spraying, with 6000 ppm IBA
[5] = 4 day old seedlings, 5 days on vertical plates

| Structure (SMILES) | effect on AR formation in mung bean cuttings, in words (mung bean cuttings) | DR5 fluorescence (auxin activity), in words (DR5:venus marker) | effect on root elongation relative to control, in words (Arabidopsis seedlings [1]; 50 nM) | adventitious roots formed on average (Arabidopsis seedlings [2]) | mean root number per cutting, E. x trabutii [3] | callus formation in E. x trabutii [3] | mean root number and mean root length, E. x trabutii, relative to IBA alone, in words [3] | rooting rate of E. x trabutii compared with IBA alone, in words [3] | effect on root tip and root elongation zone (DR5:venus marker) | time course of root elongation inhibition (Arabidopsis seedlings [1]; 50 nM, slight inhibition until day 3, complete from day 4) | rooting in combination with IBA compared with IBA alone, in words [4] | appearance of the base of mung bean cuttings (mung bean cuttings; FIGS. 4A, 4B) | potency in promoting DR5 fluorescence relative to Compound 1t (DR5:venus marker; fluorescent intensity) | concentration that inhibited root elongation significantly (Arabidopsis seedlings [1]; [5]) [nM] | concentration that inhibited root elongation totally (Arabidopsis seedlings [1]; [5]) [nM] |
| --- | --- | --- | --- | --- | --- | --- | --- | --- | --- | --- | --- | --- | --- | --- | --- |
| COC(=O)[C@@H](Cc1c[nH]c2ccccc12)NC(=O)COc1ccc(Cl)cc1 [Compound 1s, 4-CPA-D-Trp] | induced rooting to a degree positively correlated with concentration | significantly lower fluorescence | did not affect root elongation | 0.5±0.3 | about 5 | no calluses were observed | no apparent effect | considerably higher |  |  |  |  |  |  |  |
| COC(=O)[C@H](Cc1c[nH]c2ccccc12)NC(=O)COc1ccc(Cl)cc1 [Compound 1t, 4-CPA-L-Trp] | induced rooting only at low concentrations | the most potent conjugate | inhibited root elongation relative to control | 4.7±0.9 | about 5 | no calluses were observed | no apparent effect | considerably higher | loss of auxin activity at the root tip, and swelling of the root elongation zone | biphasic behavior | at least as potent as that of their corresponding D-amino acid conjugates |  |  |  |  |
| O=C(O)COc1ccc(Cl)cc1 [Compound 4-CPA, 4-chloro-phenoxyacetic acid, reference compound] | induced a similar rooting rate only at the lowest tested concentration of 2 μM | promoted fluorescence most strongly |  | 0.8±0.4 |  |  |  |  | loss of auxin activity at the root tip, and swelling of the root elongation zone |  | considerably less effective | appeared swollen, but no AR developed | about 2 fold | 50 | 100 |
